Patent US12661338B2, “Heterocyclic compounds as modulators of beta-catenin / TCF4 interaction” (AGENCY FOR SCIENCE, TECHNOLOGY AND RESEARCH, priority 2019, dated 2026)

Columns and labels:
[1] = target: T1, β-cat / GST-TCF4 N-terminal domain interaction (Homo sapiens, UniProt P35222); assay: SPR inhibition of β-cat-TCF4 interaction; assay type: binding; settings: SPR competition, 50 nM β-cat pre-incubated 15 min, n=2; read-out: IC50 inhibition of interaction between β-cat and TCF4
T1 construct: His-tagged human β-cat (134-668); made in house; host or cells: E. coli BL21(DE3)
Method: (§1) BL21(DE3) cells harboring pET-28 β-cat expression vector of His-tagged human β-cat (134-668) were cultured at 37° C. until OD600=0.6-0.8. The cells were then induced with 500 μM isopropyl-β-D-thiogalactopyranoside (IPTG) for 6-8 hr at 23° C. Cells were lysed by sonication in lysis buffer containing 20 mM Tris (pH 8.8), 250 mM NaCl, 2 mM DTT, 5% glycerol, 0.1% Triton X-100, and cOmplete protease inhibitor cocktail (EDTA free, Roche cat. #11873580001). The lysate was incubated with Ni-NTA agarose beads (Qiagen cat. #30210) at 4° C. for 1 hr, and the beads were then washed with lysis buffer containing 20 mM imidazole. Bound protein was eluted with buffer containing 20 mM Tris (pH 8.8), 250 mM NaCl, 0.5 mM tris(2-carboxyethyl)phosphine (TCEP), 5% glycerol, and 250 mM imidazole.
GST-tagged TCF4 N-terminal domain was expressed similarly in BL21(DE3) cells, induced for 2-4 hr at 23° C. with IPTG, and purified from glutathione agarose beads (Pierce cat. #16100) using buffer containing 20 mM Tris (pH 8.8), 250 mM NaCl, 0.5 mM TCEP, 5% glycerol, and 10 mM reduced glutathione.
GST-tag TCF4 N-terminal domain (31 kDa, >90% pure based on SDS-PAGE) was immobilized on a CM5 series S sensor chip using amine-coupling chemistry. […]

β-cat-ECAD interaction = assay: Co-immunoprecipitation of β-cat and ECAD in HCT116 cells; assay type: cell-based; settings: 18 hr
Method: HCT116 cells were treated for 18 hr with compounds at the indicated concentrations. Cells were lysed on ice in lysis buffer containing 20 mM HEPES, pH 7.5, 137 mM NaCl, 1.5 mM MgCl2, 1 mM EGTA, 1 mM dithiothreitol (DTT), 1% Triton X-100, 10% glycerol, cOmplete protease inhibitor cocktail (Roche cat. #11697498001), and 1 mM Na3VO4. Each sample of cleared protein lysate was incubated overnight at 4° C. with 4 μg anti-β-cat antibody (Sigma cat. #C7207) followed by 1 hr incubation with a 50 μL slurry of Dynabeads Protein G (Invitrogen cat. #10004D) at 4° C. The beads were then washed three times with lysis buffer at 4° C., and the bound protein was eluted by heating the beads with 30 μL (per sample) of SDS sample buffer at 95° C. for 7 min. protein was resolved by SDS-PAGE and blotted onto PVDF membrane (Millipore cat. #IPVH00010). Primary antibodies were incubated overnight at 4° C. and the blots were detected with either IRDye 800CW goat anti-rabbit antibody (LI-COR cat. #926-32211) or IRDye 680RD goat anti-mouse antibody (LI-COR cat. #926-68070) at 1:5000 dilution. Signals were visualized with the LI-COR Odyssey CLx imaging system and bands were quantified using LI-COR Image Studio data analysis software. […]

STF3A cells = assay: Viability (toxicity) of STF3A reporter cells, CCK-8; assay type: cell-based; settings: Table 3; STF3A reporter cell line
Method: The Wnt STF3A reporter cells were seeded as 20,000 cells in 100 μL culture medium per well in 96-well plates (Corning cat. #3903, Falcon cat. #353072). The next day, 5-fold dilutions of the compounds in DMSO were added to the cells at a final concentration of 1% DMSO. After 24 hr incubation, the viability of the cells was determined with cell counting kit-8 (CCK-8, Dojindo cat. #CK04) cell viability reagent according to the manufacturer's protocol while the TOPFlash reporter activity was determined with Steady-Glo luciferase reagent.
The average signal from DMSO treated wells was calculated for each plate, and the signal from each treatment well was normalized against the average DMSO signal from the respective plate. The normalized values were plotted against the concentrations tested using GraphPad Prism 5, and the EC50 values were determined through either three- or four-parameter nonlinear regression.

[2] = target: T2, His-tagged human β-cat (134-668) (Homo sapiens, UniProt P35222); assay: SPR binding to β-cat
T2 construct: His-tagged human β-cat (134-668); made in house; host or cells: E. coli BL21(DE3)
Method: as §1
Surface plasmon resonance experiments were performed using a BIACORE T100 (GE Healthcare) on a CM5 series S sensor chip (GE Healthcare cat. #BR-1005-30). His-tagged β-cat (60 kDa, >90% pure based on SDS-PAGE) was immobilized using amine-coupling chemistry. The surfaces of flow cells one and two were activated with a 1:1 mixture of 0.1 M NHS (N-hydroxysuccinimide) and 0.1 M EDC (3-(N,N-dimethylamino) propyl-N-ethylcarbodiimide) at a flow rate of 5 μL/min. […]

CRC2423 = assay: Viability of primary patient-derived colorectal cancer cell line; assay type: cell-based

T2 sequence (P35222 134-668): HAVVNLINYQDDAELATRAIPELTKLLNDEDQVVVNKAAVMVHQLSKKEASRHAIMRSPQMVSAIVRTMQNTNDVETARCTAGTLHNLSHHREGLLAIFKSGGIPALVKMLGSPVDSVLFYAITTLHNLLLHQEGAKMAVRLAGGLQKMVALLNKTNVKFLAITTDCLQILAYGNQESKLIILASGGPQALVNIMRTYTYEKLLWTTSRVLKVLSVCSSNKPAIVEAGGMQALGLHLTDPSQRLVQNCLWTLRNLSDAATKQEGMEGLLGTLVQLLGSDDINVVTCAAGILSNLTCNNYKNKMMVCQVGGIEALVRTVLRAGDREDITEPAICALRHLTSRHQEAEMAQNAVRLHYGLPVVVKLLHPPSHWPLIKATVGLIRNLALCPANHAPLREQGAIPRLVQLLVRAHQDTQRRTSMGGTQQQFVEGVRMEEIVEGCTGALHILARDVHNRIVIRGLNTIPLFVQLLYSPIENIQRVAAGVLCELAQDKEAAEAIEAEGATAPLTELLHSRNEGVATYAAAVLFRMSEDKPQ
T1 sequence (P35222 134-668): as above

## CCc1ccc(OCc2nnc(SC3CCCC3=O)n2C(C)c2ccccc2)cc1 (stereo not drawn) [GB1874]
[1]
  IC50: 25 ± 8 µM
β-cat-ECAD interaction
  β-cat-ECAD interaction (co-IP): minimal effect on the β-cat-ECAD interaction
STF3A cells
  IC50: 64 µM
[2]; SPR steady state, n=3, 25° C., read-out: dissociation constant KD
  Kd: 76 ± 13 µM
[2]; SPR steady-state binding curve
  Hill slope of the best fit curve: greater than 1
CRC2423
  EC50: 30 µM
